# Data from article PMC11521914 (Frontiers in Pharmacology, 2024).
# Experiments:
# [1] = biological target: Protein tyrosine phosphatase 1B (PTP-1B); assay: Protein tyrosine phosphatase 1B (PTP-1B) enzyme activity inhibition assay; format: biochemical; conditions: rat liver supernatant, 10 mM pNPP
# Protocol: One day before the isolation of the enzyme-containing subcellular fraction, lysis buffer was prepared (50 mM HEPES, 0.1 mM EGTA, 0.1 mM EDTA, 120 mM NaCl, 0.5% NP-40, pH 7.5) and enriched with one protease inhibitor cocktail tablet per 10 mL of buffer. The liver from an overnight-fasted healthy rat, previously anesthetized with isoflurane, was removed. The organ was then homogenized in lysis buffer as described by [Li et al. (2010)]. The homogenate was filtered and subsequently centrifuged at 14,000 g for 15 min at 4°C. Supernatants were collected and stored at −40°C until use.
# Colorimetric assays were carried out to detect the dephosphorylation of pNPP, which is proportional to the activity of the PTP-1B enzyme. Three independent assays were performed in triplicate following the protocols proposed by [Guo et al. (2015)] and [Song et al. (2017)] with slight modifications. […] Finally, the absorbance was measured at 405 nm.
# Finally, for in vitro experiments, absorbance values were transformed into activity percentages following the next formula: Enzyme activity %=AS−ASB/AC−ACB×100
# Where A S is the absorbance of the inhibitor sample at a specific concentration, A SB is the blank of the inhibitor sample, A C is the highest absorbance (without inhibitor), and A CB is the blank of the highest absorbance. […]
# [2] = test system: STZ-NA-hyperglycemic rats; assay: Pyruvate tolerance tests (inhibition of hepatic glucose production); format: in vivo, Wistar rats; conditions: rats fasted 18 h, pyruvate 2 g/kg i.p.; metformin 500 mg/kg b.w. oral
# Protocol: Treatment administration (vehicle and samples) was performed orally with the help of an esophageal cannula. Blood samples were obtained from the tail vein and glucose measurements were performed in duplicate using Accu-Chek® Active glucometers.
# In summary hyperglycemia was induced as described by [Masiello et al. (1998)], rats fasted for 12 h were administered intraperitoneally with 150 mg/kg b. w. of NA and, 15 min later, 65 mg/kg b. w. of STZ was injected intravenously. After 2 weeks, animals with blood glucose values above 180 mg/dL were selected to perform the tests described below.
# After basal glucose measurement, animals received their corresponding treatment. Fifteen minutes later, rats were injected intraperitoneally with a pyruvate solution (2 g/kg b. w.). In total, 30 rats were divided into five groups (n = 6 each group): 1. Normoglycemic Control + pyruvate (NP), receiving physiological solution; 2. Hyperglycemic Control + pyruvate (HP), which was administered with physiological solution; 3. […] (HMP); 4. Hyperglycemic Group + pyruvate + EtOH-WCg, administered with 30 mg/kg b. w. (HCgP); and 5. […] (HJaP). After intraperitoneal injection, glucose levels were measured every 30 min for 2 h ([Mata-Torres et al., 2020]).
# Protein tyrosine phosphatase 1B (PTP-1B), sequence (P20417 whole entry): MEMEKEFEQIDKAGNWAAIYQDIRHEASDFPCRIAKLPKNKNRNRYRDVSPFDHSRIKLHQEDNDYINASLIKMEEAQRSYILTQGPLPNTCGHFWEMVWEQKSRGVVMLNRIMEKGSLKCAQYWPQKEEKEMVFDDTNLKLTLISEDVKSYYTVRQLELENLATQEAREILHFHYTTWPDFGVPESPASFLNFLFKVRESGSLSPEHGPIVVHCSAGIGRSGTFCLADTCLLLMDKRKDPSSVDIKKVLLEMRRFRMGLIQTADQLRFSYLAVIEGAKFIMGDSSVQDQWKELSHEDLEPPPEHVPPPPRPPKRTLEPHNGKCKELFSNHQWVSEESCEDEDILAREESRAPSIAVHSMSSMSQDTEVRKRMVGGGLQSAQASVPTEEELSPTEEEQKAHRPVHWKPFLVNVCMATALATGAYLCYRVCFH
IC50 ± SEM [1] [µg/mL],Inhibition % [1] [%],Compound,effect on the hyperglycemic peak 30 min after pyruvate injection [2]
43.2 ± 1.5,97,[Na+].[Na+].[Na+].[O]=[V]([O-])([O-])[O-] [Na3VO4],–
–,–,CN(C)C(=N)N=C(N)N [metformin],completely inhibited the hyperglycemic peak
